Reference: article PMC10436550, “Subacute toxicity evaluations of LPM3480392 in rats, a full µ-opioid receptor biased agonist” (Frontiers in Pharmacology, 2023)

Assays:
Sprague Dawley (SD) rats [1] = assay: Mortality and clinical observation, 4-week subacute toxicity study; format: in vivo, rat; conditions: for Mild to severe increased activity, starting day: dosing phase
Protocol: For all surviving animals, a morning and an afternoon observation every day were conducted for the moribundity and death. Daily observation was carried out once within 1 h after each dosing in dosing phase, and at least once daily in recovery phase, including mental status, food and water consumption, hair, discharge, mortality and other toxic reactions. Detailed observation was performed once every week, including appearance, movement, mental status, gland secretions, skin and mucosa color, respiration, genitals, mortality and other toxic reactions.
The animals found dead were recorded for the observation or death time, and weighed followed by a complete postmortem examination to explore the cause of death. All required organs and tissue as listed in the Section 2.11 and other tissues with gross lesions were performed with histopathology examination. Animals found dead which could not be examined immediately were temporarily refrigerated.

Sprague Dawley (SD) rats [2] = assay: Hematology, 4-week subacute toxicity study
[3] = female rats, 0.6 mg/kg/day, End of dosing phase
[4] = female rats, 0.6 mg/kg/day, End of recovery phase
[5] = female rats, 1.2 mg/kg/day, End of dosing phase
[6] = female rats, 1.2 mg/kg/day, End of recovery phase
[7] = female rats, 2.4 mg/kg/day, End of dosing phase
[8] = female rats, 2.4 mg/kg/day, End of recovery phase
[9] = female rats, end of dosing phase
[10] = male rats, 0.6 mg/kg/day, End of dosing phase
[11] = male rats, 0.6 mg/kg/day, End of recovery phase
[12] = male rats, 1.2 mg/kg/day, End of dosing phase
[13] = male rats, 1.2 mg/kg/day, End of recovery phase
[14] = male rats, 2.4 mg/kg/day, End of dosing phase
[15] = male rats, 2.4 mg/kg/day, End of recovery phase

Fc1ccc([C@]2(CCNCc3cccc(Cl)c3)CCO[C@]3(CCOC3)C2)nc1 [LPM3480392]
Mild to severe increased activity, starting day (Sprague Dawley (SD) rats [1]; 0.6 mg/kg/day): 7 | Mild to severe increased activity, starting day (Sprague Dawley (SD) rats [1]; 1.2 mg/kg/day): 4 | Increased muscle tone, incidence (Sprague Dawley (SD) rats [1]; 1.2 mg/kg/day, first 5 days of dosing phase): 33/38 | Deep respiration or rale, incidence (Sprague Dawley (SD) rats [1]; 2.4 mg/kg/day): 4/36 | Hunchback, incidence (Sprague Dawley (SD) rats [1]; 2.4 mg/kg/day): 1/36 | Piloerection, incidence (Sprague Dawley (SD) rats [1]; 2.4 mg/kg/day): 1/36 | Found dead (1 male and 1 female) (Sprague Dawley (SD) rats [1]; 2.4 mg/kg/day, Days 3 and 15): 2/30 | Decreased activity, incidence (Sprague Dawley (SD) rats [1]; 2.4 mg/kg/day, a few time points during dosing phase): 26/36 | Mild to severe increased activity, starting day (Sprague Dawley (SD) rats [1]; 2.4 mg/kg/day): 1 | Increased muscle tone, incidence (Sprague Dawley (SD) rats [1]; 2.4 mg/kg/day, mostly complete dosing phase): 36/36 | LYM (Sprague Dawley (SD) rats [2]; [3]): 4.17 ± 0.90 10^9/L | LYM% (Sprague Dawley (SD) rats [2]; [3]): 86.1 ± 5.8% | MCV (Sprague Dawley (SD) rats [2]; [3]): 58.1 ± 1.5 fL | MONO (Sprague Dawley (SD) rats [2]; [3]): 0.05 ± 0.02 10^9/L | MONO% (Sprague Dawley (SD) rats [2]; [3]): 1.1 ± 0.4 % | NEU (Sprague Dawley (SD) rats [2]; [3]): 0.51 ± 0.26 10^9/L | NEU% (Sprague Dawley (SD) rats [2]; [3]): 10.6 ± 5.5% | PLT (Sprague Dawley (SD) rats [2]; [3]): 1072 ± 103 10^9/L | RBC (Sprague Dawley (SD) rats [2]; [3]): 6.90 ± 0.35 10^12/L | WBC (Sprague Dawley (SD) rats [2]; [3]): 4.84 ± 0.93 10^9/L | LYM (Sprague Dawley (SD) rats [2]; [4]): 3.46 ± 0.53 10^9/L | LYM% (Sprague Dawley (SD) rats [2]; [4]): 85.8 ± 4.4 % | MCV (Sprague Dawley (SD) rats [2]; [4]): 56.4 ± 1.2 fL | MONO (Sprague Dawley (SD) rats [2]; [4]): 0.04 ± 0.02 10^9/L | MONO% (Sprague Dawley (SD) rats [2]; [4]): 1.1 ± 0.4 % | NEU (Sprague Dawley (SD) rats [2]; [4]): 0.42 ± 0.17^* 10^9/L | NEU% (Sprague Dawley (SD) rats [2]; [4]): 10.6 ± 4.8 % | PLT (Sprague Dawley (SD) rats [2]; [4]): 975 ± 144 10^9/L | RBC (Sprague Dawley (SD) rats [2]; [4]): 7.56 ± 0.22 10^12/L | WBC (Sprague Dawley (SD) rats [2]; [4]): 4.03 ± 0.57 10^9/L | LYM (Sprague Dawley (SD) rats [2]; [5]): 4.21 ± 1.29 10^9/L | LYM% (Sprague Dawley (SD) rats [2]; [5]): 85.7 ± 7.2% | MCV (Sprague Dawley (SD) rats [2]; [5]): 58.7 ± 2.1 fL | MONO (Sprague Dawley (SD) rats [2]; [5]): 0.05 ± 0.02 10^9/L | MONO% (Sprague Dawley (SD) rats [2]; [5]): 0.9 ± 0.3 % | NEU (Sprague Dawley (SD) rats [2]; [5]): 0.50 ± 0.24 10^9/L | NEU% (Sprague Dawley (SD) rats [2]; [5]): 11.1 ± 7.2% | PLT (Sprague Dawley (SD) rats [2]; [5]): 1064 ± 104 10^9/L | RBC (Sprague Dawley (SD) rats [2]; [5]): 6.59 ± 0.26^* 10^12/L | WBC (Sprague Dawley (SD) rats [2]; [5]): 4.87 ± 1.28 10^9/L | LYM (Sprague Dawley (SD) rats [2]; [6]): 2.95 ± 0.75 10^9/L | LYM% (Sprague Dawley (SD) rats [2]; [6]): 85.9 ± 3.0 % | MCV (Sprague Dawley (SD) rats [2]; [6]): 56.6 ± 1.8 fL | MONO (Sprague Dawley (SD) rats [2]; [6]): 0.04 ± 0.01 10^9/L | MONO% (Sprague Dawley (SD) rats [2]; [6]): 1.2 ± 0.4 % | NEU (Sprague Dawley (SD) rats [2]; [6]): 0.35 ± 0.08^* 10^9/L | NEU% (Sprague Dawley (SD) rats [2]; [6]): 10.6 ± 2.5 % | PLT (Sprague Dawley (SD) rats [2]; [6]): 975 ± 42 10^9/L | RBC (Sprague Dawley (SD) rats [2]; [6]): 7.44 ± 0.33 10^12/L | WBC (Sprague Dawley (SD) rats [2]; [6]): 3.42 ± 0.78 10^9/L | LYM (Sprague Dawley (SD) rats [2]; [7]): 2.53 ± 0.59 10^9/L | LYM% (Sprague Dawley (SD) rats [2]; [7]): 81.1 ± 5.3% | MCV (Sprague Dawley (SD) rats [2]; [7]): 58.1 ± 1.9 fL | MONO (Sprague Dawley (SD) rats [2]; [7]): 0.03 ± 0.02^* 10^9/L | MONO% (Sprague Dawley (SD) rats [2]; [7]): 1.0 ± 0.3 % | NEU (Sprague Dawley (SD) rats [2]; [7]): 0.51 ± 0.29 10^9/L | NEU% (Sprague Dawley (SD) rats [2]; [7]): 15.4 ± 4.6% | PLT (Sprague Dawley (SD) rats [2]; [7]): 946 ± 108^* 10^9/L | RBC (Sprague Dawley (SD) rats [2]; [7]): 6.57 ± 0.30^* 10^12/L | WBC (Sprague Dawley (SD) rats [2]; [7]): 3.15 ± 0.87 10^9/L | LYM (Sprague Dawley (SD) rats [2]; [8]): 3.02 ± 0.62 10^9/L | LYM% (Sprague Dawley (SD) rats [2]; [8]): 83.7 ± 3.4 % | MCV (Sprague Dawley (SD) rats [2]; [8]): 56.8 ± 0.8 fL | MONO (Sprague Dawley (SD) rats [2]; [8]): 0.04 ± 0.01 10^9/L | MONO% (Sprague Dawley (SD) rats [2]; [8]): 1.2 ± 0.3 % | NEU (Sprague Dawley (SD) rats [2]; [8]): 0.46 ± 0.09^* 10^9/L | NEU% (Sprague Dawley (SD) rats [2]; [8]): 12.8 ± 2.8 % | PLT (Sprague Dawley (SD) rats [2]; [8]): 998 ± 45 10^9/L | RBC (Sprague Dawley (SD) rats [2]; [8]): 7.45 ± 0.17 10^12/L | WBC (Sprague Dawley (SD) rats [2]; [8]): 3.60 ± 0.67 10^9/L | Magnitude of change of MCV (Sprague Dawley (SD) rats [2]; [9]): less than 5% | Magnitude of change of PLT (Sprague Dawley (SD) rats [2]; [9]): < 15% | Magnitude of change of RBC (Sprague Dawley (SD) rats [2]; [9]): < 6% | EOS (Sprague Dawley (SD) rats [2]; [10]): 0.042 ± 0.013 10^9/L | EOS% (Sprague Dawley (SD) rats [2]; [10]): 0.90 ± 0.42% | MONO (Sprague Dawley (SD) rats [2]; [10]): 0.07 ± 0.03 10^9/L | MONO% (Sprague Dawley (SD) rats [2]; [10]): 1.3 ± 0.6% | RBC (Sprague Dawley (SD) rats [2]; [10]): 7.05 ± 0.32 10^12/L | RET (Sprague Dawley (SD) rats [2]; [10]): 0.300 ± 0.051 10^12/L | RET % (Sprague Dawley (SD) rats [2]; [10]): 4.26 ± 0.77% | WBC (Sprague Dawley (SD) rats [2]; [10]): 5.19 ± 1.38 10^9/L | EOS (Sprague Dawley (SD) rats [2]; [11]): 0.046 ± 0.018 10^9/L | EOS% (Sprague Dawley (SD) rats [2]; [11]): 1.14 ± 0.38% | MONO (Sprague Dawley (SD) rats [2]; [11]): 0.04 ± 0.02 10^9/L | MONO% (Sprague Dawley (SD) rats [2]; [11]): 1.0 ± 0.4% | RBC (Sprague Dawley (SD) rats [2]; [11]): 7.96 ± 0.24 10^12/L | RET (Sprague Dawley (SD) rats [2]; [11]): 0.144 ± 0.021 10^12/L | RET % (Sprague Dawley (SD) rats [2]; [11]): 1.81 ± 0.30% | WBC (Sprague Dawley (SD) rats [2]; [11]): 4.04 ± 1.12 10^9/L | EOS (Sprague Dawley (SD) rats [2]; [12]): 0.035 ± 0.016^* 10^9/L | EOS% (Sprague Dawley (SD) rats [2]; [12]): 0.77 ± 0.39% | MONO (Sprague Dawley (SD) rats [2]; [12]): 0.05 ± 0.02 10^9/L | MONO% (Sprague Dawley (SD) rats [2]; [12]): 1.1 ± 0.3% | RBC (Sprague Dawley (SD) rats [2]; [12]): 7.06 ± 0.32 10^12/L | RET (Sprague Dawley (SD) rats [2]; [12]): 0.331 ± 0.062^* 10^12/L | RET % (Sprague Dawley (SD) rats [2]; [12]): 4.70 ± 0.92 % | WBC (Sprague Dawley (SD) rats [2]; [12]): 4.56 ± 0.55 10^9/L | EOS (Sprague Dawley (SD) rats [2]; [13]): 0.042 ± 0.013 10^9/L | EOS% (Sprague Dawley (SD) rats [2]; [13]): 0.90 ± 0.12% | MONO (Sprague Dawley (SD) rats [2]; [13]): 0.04 ± 0.02 10^9/L | MONO% (Sprague Dawley (SD) rats [2]; [13]): 0.9 ± 0.3% | RBC (Sprague Dawley (SD) rats [2]; [13]): 7.99 ± 0.29 10^12/L | RET (Sprague Dawley (SD) rats [2]; [13]): 0.132 ± 0.017 10^12/L | RET % (Sprague Dawley (SD) rats [2]; [13]): 1.65 ± 0.21% | WBC (Sprague Dawley (SD) rats [2]; [13]): 4.50 ± 1.16 10^9/L | EOS (Sprague Dawley (SD) rats [2]; [14]): 0.022 ± 0.014^* 10^9/L | EOS% (Sprague Dawley (SD) rats [2]; [14]): 0.49 ± 0.29 % | MONO (Sprague Dawley (SD) rats [2]; [14]): 0.04 ± 0.02^* 10^9/L | MONO% (Sprague Dawley (SD) rats [2]; [14]): 0.9 ± 0.4% | RBC (Sprague Dawley (SD) rats [2]; [14]): 7.05 ± 0.37 10^12/L | RET (Sprague Dawley (SD) rats [2]; [14]): 0.387 ± 0.053^* 10^12/L | RET % (Sprague Dawley (SD) rats [2]; [14]): 5.51 ± 0.83 % | WBC (Sprague Dawley (SD) rats [2]; [14]): 4.24 ± 0.98 10^9/L | EOS (Sprague Dawley (SD) rats [2]; [15]): 0.032 ± 0.011 10^9/L | EOS% (Sprague Dawley (SD) rats [2]; [15]): 0.66 ± 0.21% | MONO (Sprague Dawley (SD) rats [2]; [15]): 0.05 ± 0.02 10^9/L | MONO% (Sprague Dawley (SD) rats [2]; [15]): 1.1 ± 0.3% | RBC (Sprague Dawley (SD) rats [2]; [15]): 7.62 ± 0.37 10^12/L | RET (Sprague Dawley (SD) rats [2]; [15]): 0.157 ± 0.008 10^12/L | RET % (Sprague Dawley (SD) rats [2]; [15]): 2.07 ± 0.11 % | WBC (Sprague Dawley (SD) rats [2]; [15]): 5.02 ± 0.40 10^9/L
